# Experimental data as given in ChEMBL document CHEMBL1149193, “Selective optimization of side activities: another way for drug discovery” (J Med Chem, 2004).
# How the values were obtained:
# [1] = target: T1, Alpha-1A adrenergic receptor (Homo sapiens, UniProt P35348)
# T1 sequence (P35348 whole entry): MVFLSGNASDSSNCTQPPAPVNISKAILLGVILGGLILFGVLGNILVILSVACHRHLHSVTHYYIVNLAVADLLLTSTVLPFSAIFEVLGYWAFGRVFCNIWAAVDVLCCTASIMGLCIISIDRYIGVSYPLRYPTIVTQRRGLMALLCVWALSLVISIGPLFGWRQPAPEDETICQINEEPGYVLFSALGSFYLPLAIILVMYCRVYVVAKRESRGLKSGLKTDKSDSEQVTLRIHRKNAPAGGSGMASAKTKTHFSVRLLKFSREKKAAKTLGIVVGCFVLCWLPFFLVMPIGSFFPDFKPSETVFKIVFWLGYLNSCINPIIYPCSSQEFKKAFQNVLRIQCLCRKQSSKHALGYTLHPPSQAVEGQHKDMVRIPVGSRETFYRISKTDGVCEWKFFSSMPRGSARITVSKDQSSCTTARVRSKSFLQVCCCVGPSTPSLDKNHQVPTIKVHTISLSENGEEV
# Description: Binding affinity towards recombinant human alpha-1A adrenergic receptor
# D(4) dopamine receptor = target: T2, D(4) dopamine receptor (Homo sapiens, UniProt P21917)
# T2 sequence (P21917 whole entry): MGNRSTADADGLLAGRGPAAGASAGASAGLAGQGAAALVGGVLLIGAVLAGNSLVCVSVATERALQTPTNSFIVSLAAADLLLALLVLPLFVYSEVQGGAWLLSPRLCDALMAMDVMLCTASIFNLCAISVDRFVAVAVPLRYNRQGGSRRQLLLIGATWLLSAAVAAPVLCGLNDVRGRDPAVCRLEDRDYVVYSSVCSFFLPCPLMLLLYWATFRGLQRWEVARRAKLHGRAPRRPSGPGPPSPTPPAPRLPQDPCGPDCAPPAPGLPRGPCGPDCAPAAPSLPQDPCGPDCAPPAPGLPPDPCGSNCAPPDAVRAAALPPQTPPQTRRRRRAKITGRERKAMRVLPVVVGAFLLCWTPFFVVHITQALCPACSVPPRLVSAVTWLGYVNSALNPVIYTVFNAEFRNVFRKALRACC
# Description: Binding affinity towards human Dopamine receptor D4
# Mus musculus = species on record: Mus musculus; experiment: animal or person; type: functional; conditions: sc
# Description: In vivo inhibitory activity for apomorphine induced climbing in mice, sc
# D(3) dopamine receptor = D(3) dopamine receptor (Homo sapiens, UniProt P35462)
# Chain of D(3) dopamine receptor (P35462 whole entry): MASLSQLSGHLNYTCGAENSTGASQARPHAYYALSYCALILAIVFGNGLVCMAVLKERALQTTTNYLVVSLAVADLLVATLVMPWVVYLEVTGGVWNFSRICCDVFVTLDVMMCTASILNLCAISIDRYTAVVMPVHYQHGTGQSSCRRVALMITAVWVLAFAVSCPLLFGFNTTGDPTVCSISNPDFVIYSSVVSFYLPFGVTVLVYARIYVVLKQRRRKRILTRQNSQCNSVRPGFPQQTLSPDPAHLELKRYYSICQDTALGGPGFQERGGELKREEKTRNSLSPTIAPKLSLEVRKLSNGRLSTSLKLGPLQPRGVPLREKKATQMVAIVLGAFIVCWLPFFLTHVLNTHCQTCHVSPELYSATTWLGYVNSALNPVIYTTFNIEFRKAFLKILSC
# Description: Binding affinity against Dopamine receptor D3
Ki [1] [nM],Ki (D(4) dopamine receptor) [nM],Ki (D(3) dopamine receptor) [nM],SMILES,ED50 (Mus musculus) [mg/kg]
0.36,,,COCC1=C(C(=O)OC)[C@H](c2ccc(F)c(F)c2)C(C(=O)NCCCN2CCC(c3ccccn3)CC2)C(=O)N1 (some centres undefined),
,2.1,21,COc1cc(NC(=O)C2CC2)c(Cl)cc1C(=O)NC1CCN(Cc2ccccc2)C1 (centres undefined),0.32
